Test results taken from patent US20130209543A1, “ENHANCED TREATMENT REGIMENS USING MTOR INHIBITORS” (Intellikine LLC, priority 2011, published 2013).

Assay: Phase I clinical trial: safety, related treatment-emergent adverse events, patients n (%)
Assay type: in vivo
[1] = Total QW Dosing, N = 15, listed as Cpd A
[2] = all 3 intermittent dosing regimens, n=35

Method: Safety, maximum tolerated dose (MTD), pharmacokinetics (PK) and preliminary antitumor activity were evaluated.
Pharmacodynamic (PD) endpoints were evaluated in surrogate (peripheral blood cells [PBCs], skin) and tumor tissues for the phosphorylation of TORC1-dependent markers (4EBP1/S6), and TORC2-dependent markers (AKT/PRAS40).

CC(C)n1nc(-c2ccc3oc(N)nc3c2)c2c(N)ncnc21 [compound A]
20%: AE possibly related: diarrhea [2]
1 (2%): Catheter site inflammation (Total, N = 60) | Catheter site pain (Total, N = 60) | Coagulopathy (Total, N = 60) | Confusional state (Total, N = 60) | Cough (Total, N = 60) | Diarrhea (Total, N = 60) | Dizziness (Total, N = 60) | Dyspnoea exertional (Total, N = 60) | Eye infection (Total, N = 60) | Fatigue (Total, N = 60) | Gastritis (Total, N = 60) | Gravitational oedema (Total, N = 60) | Headache (Total, N = 60) | Hyperbilirubinaemia (Total, N = 60) | Hypertransaminasaemia (Total, N = 60) | Hypertriglyceridaemia (Total, N = 60) | Hypocalcaemia (Total, N = 60) | Hypomagnesaemia (Total, N = 60) | Hypotension (Total, N = 60) | Insomnia (Total, N = 60) | Low fever (Total, N = 60) | Malaise (Total, N = 60) | Nausea (Total, N = 60) | Oral discomfort (Total, N = 60) | Orthostatic hypotension (Total, N = 60) | Palmar-plantar erythrodysaesthesia syndrome (Total, N = 60) | Panniculitis (Total, N = 60) | Platelet count decreased (Total, N = 60) | Polyuria (Total, N = 60) | Pyrexia (Total, N = 60) | Rash (Total, N = 60) | Rash macular (Total, N = 60) | Skin discolouration (Total, N = 60) | Skin exfoliation (Total, N = 60) | Urinary tract infection (Total, N = 60) | Urine tract infection (Total, N = 60) | Vomiting (Total, N = 60) | Weakness (Total, N = 60) | Weight decreased (Total, N = 60)
26%: AE possibly related: vomiting [2]
0 (0%): Gastritis (Total QDx3d QW, N = 14) | Gravitational oedema (Total QDx3d QW, N = 14) | Hypocalcaemia (Total QDx3d QW, N = 14) | Insomnia (Total QDx3d QW, N = 14) | Malaise (Total QDx3d QW, N = 14) | Nausea (Total QDx3d QW, N = 14) | Oral discomfort (Total QDx3d QW, N = 14) | Orthostatic hypotension (Total QDx3d QW, N = 14) | Panniculitis (Total QDx3d QW, N = 14) | Polyuria (Total QDx3d QW, N = 14) | Rash (Total QDx3d QW, N = 14) | Skin discolouration (Total QDx3d QW, N = 14) | Skin exfoliation (Total QDx3d QW, N = 14) | Urine tract infection (Total QDx3d QW, N = 14) | Vomiting (Total QDx3d QW, N = 14) | Weakness (Total QDx3d QW, N = 14) | Weight decreased (Total QDx3d QW, N = 14) | Catheter site inflammation (Total QDx5d QW, N = 6) | Catheter site pain (Total QDx5d QW, N = 6) | Coagulopathy (Total QDx5d QW, N = 6) | Confusional state (Total QDx5d QW, N = 6) | Cough (Total QDx5d QW, N = 6) | Diarrhea (Total QDx5d QW, N = 6) | Dizziness (Total QDx5d QW, N = 6) | Dyspnoea exertional (Total QDx5d QW, N = 6) | Eye infection (Total QDx5d QW, N = 6) | Fatigue (Total QDx5d QW, N = 6) | Gastritis (Total QDx5d QW, N = 6) | Gravitational oedema (Total QDx5d QW, N = 6) | Headache (Total QDx5d QW, N = 6) | Hyperbilirubinaemia (Total QDx5d QW, N = 6) | Hypertransaminasaemia (Total QDx5d QW, N = 6) | Hypertriglyceridaemia (Total QDx5d QW, N = 6) | Hypocalcaemia (Total QDx5d QW, N = 6) | Hypomagnesaemia (Total QDx5d QW, N = 6) | Hypotension (Total QDx5d QW, N = 6) | Insomnia (Total QDx5d QW, N = 6) | Low fever (Total QDx5d QW, N = 6) | Malaise (Total QDx5d QW, N = 6) | Oral discomfort (Total QDx5d QW, N = 6) | Orthostatic hypotension (Total QDx5d QW, N = 6) | Palmar-plantar erythrodysaesthesia syndrome (Total QDx5d QW, N = 6) | Panniculitis (Total QDx5d QW, N = 6) | Platelet count decreased (Total QDx5d QW, N = 6) | Polyuria (Total QDx5d QW, N = 6) | Pyrexia (Total QDx5d QW, N = 6) | Rash (Total QDx5d QW, N = 6) | Rash macular (Total QDx5d QW, N = 6) | Skin discolouration (Total QDx5d QW, N = 6) | Skin exfoliation (Total QDx5d QW, N = 6) | Urinary tract infection (Total QDx5d QW, N = 6) | Weakness (Total QDx5d QW, N = 6) | Weight decreased (Total QDx5d QW, N = 6) | Catheter site inflammation (Total QW Dosing, N = 15) | Catheter site pain (Total QW Dosing, N = 15) | Coagulopathy (Total QW Dosing, N = 15) | Confusional state (Total QW Dosing, N = 15) | Cough (Total QW Dosing, N = 15) | Dizziness (Total QW Dosing, N = 15) | Dyspnoea exertional (Total QW Dosing, N = 15) | Eye infection (Total QW Dosing, N = 15) | Fatigue (Total QW Dosing, N = 15) | Gastritis (Total QW Dosing, N = 15) | Gravitational oedema (Total QW Dosing, N = 15) | Headache (Total QW Dosing, N = 15) | Hyperbilirubinaemia (Total QW Dosing, N = 15) | Hypertransaminasaemia (Total QW Dosing, N = 15) | Hypertriglyceridaemia (Total QW Dosing, N = 15) | Hypocalcaemia (Total QW Dosing, N = 15) | Hypomagnesaemia (Total QW Dosing, N = 15) | Hypotension (Total QW Dosing, N = 15) | Insomnia (Total QW Dosing, N = 15) | Low fever (Total QW Dosing, N = 15) | Nausea (Total QW Dosing, N = 15) | Orthostatic hypotension (Total QW Dosing, N = 15) | Palmar-plantar erythrodysaesthesia syndrome (Total QW Dosing, N = 15) | Panniculitis (Total QW Dosing, N = 15) | Platelet count decreased (Total QW Dosing, N = 15) | Polyuria (Total QW Dosing, N = 15) | Pyrexia (Total QW Dosing, N = 15) | Rash macular (Total QW Dosing, N = 15) | Skin discolouration (Total QW Dosing, N = 15) | Skin exfoliation (Total QW Dosing, N = 15) | Urinary tract infection (Total QW Dosing, N = 15) | Urine tract infection (Total QW Dosing, N = 15) | Vomiting (Total QW Dosing, N = 15) | Weight decreased (Total QW Dosing, N = 15)
1 (17%): Nausea (second line) (Total QDx5d QW, N = 6)
23%: AE possibly related: asthenia [2] | AE possibly related: rash [2]
Grade 1 or 2: grade of the majority of AEs possibly related (any regimen)
3 (20%): Diarrhoea (Total QW Dosing, N = 15) | Mucosal inflammation (Total QW Dosing, N = 15)
2 (13%): Aspartate aminotransferase increased (Total QW Dosing, N = 15) | Asthenia (Total QW Dosing, N = 15) | HYPERGLYCEMIA (Total QW Dosing, N = 15)
5 (33%): Hyperglycaemia (Total QW Dosing, N = 15) | Vomiting [1]
10 (67%): Nausea [1]
37%: AE possibly related: hyperglycemia [2]
51%: AE possibly related: nausea [2]
29%: AE possibly related: mucosal inflammation [2]
reversible: reversibility of adverse events (all AEs reported)
13 (87%): Patients Reporting at Least One Related TEAE (Total QW Dosing, N = 15)
